In patent publication US12503461B2, “Pesticidally active heterocyclic derivatives with sulfur and sulfoximine containing substituents” (SYNGENTA CROP PROTECTION AG, priority 2019, dated 2025):

Assays:
Assay type in all cases: in vivo
[1] = tested on: Diabrotica balteata (Corn Root Worm); experiment: Example B1: Diabrotica balteata (corn root worm), sprayed maize sprouts on agar, L2 larvae; conditions: 96 h, application rate of 200 ppm, 4 days after infestation, in comparison to untreated samples, read-out: effect in at least one of the two categories (mortality or growth inhibition)
Protocol: Example B1: Diabrotica balteata (Corn Root Worm
Maize sprouts placed onto an agar layer in 24-well microtiter plates were treated with aqueous test solutions prepared from 10′000 ppm DMSO stock solutions by spraying. After drying, the plates were infested with L2 larvae (6 to 10 per well). The samples were assessed for mortality and growth inhibition in comparison to untreated samples 4 days after infestation.

[2] = tested on: Chilo suppressalis (Striped Rice Stemborer); experiment: Example B9: Chilo suppressalis (striped rice stemborer), treated artificial diet, L2 larvae; conditions: 144 h, application rate of 200 ppm, 6 days after infestation, in comparison to untreated samples, read-out: control (mortality, anti-feeding effect, or growth inhibition)
Protocol: Example B9: Chilo suppressalis (Striped Rice Stemborer
24-well microtiter plates with artificial diet were treated with aqueous test solutions prepared from 10′000 ppm DMSO stock solutions by pipetting. After drying, the plates were infested with L2 larvae (6-8 per well). The samples were assessed for mortality, anti-feeding effect, and growth inhibition in comparison to untreated samples 6 days after infestation. Control of Chilo suppressalis by a test sample is given when at least one of the categories mortality, anti-feedant effect, and growth inhibition is higher than the untreated sample.

[3] = tested on: Plutella xylostella (Diamond Back Moth); experiment: Example B4: Plutella xylostella (diamond back moth), treated artificial diet, eggs; conditions: 192 h, application rate of 200 ppm, 8 days after infestation, in comparison to untreated samples, read-out: effect in at least one of the two categories (mortality or growth inhibition)
Protocol: Example B4: Plutella xylostella (Diamond Back Moth
24-well microtiter plates with artificial diet were treated with aqueous test solutions prepared from 10′000 ppm DMSO stock solutions by pipetting. After drying, Plutella eggs were pipetted through a plastic stencil onto a gel blotting paper and the plate was closed with it. The samples were assessed for mortality and growth inhibition in comparison to untreated samples 8 days after infestation.

[4] = tested on: Frankliniella occidentalis (Western Flower Thrips); experiment: Example B3: Frankliniella occidentalis (western flower thrips), sprayed sunflower leaf discs; conditions: foliar, 168 h, application rate of 200 ppm, population of mixed ages, 7 days after infestation
Protocol: Example B3: Frankliniella occidentalis (Western Flower Thrips
Sunflower leaf discs were placed on agar in 24-well microtiter plates and sprayed with aqueous test solutions prepared from […] stock solutions. After drying the leaf discs were infested with a Frankliniella population of mixed ages. The samples were assessed for mortality 7 days after infestation.

[5] = tested on: Spodoptera littoralis (Egyptian Cotton Leaf Worm); experiment: Example B7: Spodoptera littoralis (Egyptian cotton leaf worm), sprayed cotton leaf discs, L1 larvae; conditions: foliar, 72 h, application rate of 200 ppm, 3 days after infestation, in comparison to untreated samples
In short: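 Cotton leaf discs on agar were sprayed with aqueous test solutions made from 10′000 ppm DMSO stocks, dried, and infested with five L1 larvae. Mortality, anti-feeding and growth inhibition were scored against untreated samples 3 days after infestation; control means any category exceeds the untreated sample.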

[6] = tested on: Bemisia tabaci (Cotton White Fly); experiment: Example B6: Bemisia tabaci (cotton white fly), feeding/contact activity, sprayed cotton leaf discs; conditions: foliar, 144 h, application rate of 200 ppm, adult white flies, 6 days after incubation
Protocol: Example B6: Bemisia tabaci (Cotton White Fly). Feeding/Contact Activity
Cotton leaf discs were placed on agar in 24-well microtiter plates and sprayed with aqueous test solutions prepared from 10′000 ppm DMSO stock solutions. After drying the leaf discs were infested with adult white flies. The samples were checked for mortality 6 days after incubation.

[7] = tested on: Myzus persicae (Green Peach Aphid); experiment: Example B5: Myzus persicae (green peach aphid), feeding/contact activity, sprayed sunflower leaf discs; conditions: foliar, 144 h, application rate of 200 ppm, aphid population of mixed ages, 6 days after infestation
Protocol: Example B5: Myzus persicae (Green Peach Aphid). Feeding/Contact Activity
Sunflower leaf discs were placed onto agar in a 24-well microtiter plate and sprayed with aqueous test solutions prepared from 10′000 ppm DMSO stock solutions. After drying, the leaf discs were infested with an aphid population of mixed ages. The samples were assessed for mortality 6 days after infestation.

[8] = tested on: Euschistus heros (Neotropical Brown Stink Bug); experiment: Example B2: Euschistus heros (neotropical brown stink bug), sprayed soybean leaves, N2 nymphs; conditions: 120 h, application rate of 200 ppm, 5 days after infestation, in comparison to untreated samples, read-out: effect in at least one of the two categories (mortality or growth inhibition)
Protocol: Example B2: Euschistus heros (Neotropical Brown Stink Bug
Soybean leaves on agar in 24-well microtiter plates were sprayed with aqueous test solutions prepared from 10′000 ppm DMSO stock solutions. After drying the leaves were infested with N2 nymphs. The samples were assessed for mortality and growth inhibition in comparison to untreated samples 5 days after infestation.

CCS(=O)(=O)c1cc(C2(C#N)CC2)cnc1-c1nc2cc(S(=O)(=NCC(F)(F)F)C(F)(F)F)cnc2n1C (stereo not drawn) [P57, 1-[5-ethylsulfonyl-6-[3-methyl-6-[N-(2,2,2-trifluoroethyl)-S-(trifluoromethyl)sulfonimidoyl]imidazo[4,5-b]pyridin-2-yl]-3-pyridyl]cyclopropanecarbonitrile]
≥ 80%: percent effect (mortality or growth inhibition) at 200 ppm [1] | percent control (mortality, anti-feedant effect or growth inhibition) at 200 ppm [2] | percent effect (mortality or growth inhibition) at 200 ppm [3] | mortality at 200 ppm [4] | percent control (mortality, anti-feeding effect or growth inhibition) at 200 ppm [5] | mortality at 200 ppm [6] | mortality at 200 ppm [7]

CCS(=O)(=O)c1cc(C2(C#N)CC2)cnc1-c1nc2cc(S(=O)(=NC3CC3)C(F)(F)F)cnc2n1C (stereo not drawn) [P58, 1-[6-[6-[N-cyclopropyl-S-(trifluoromethyl)sulfonimidoyl]-3-methyl-imidazo[4,5-b]pyridin-2-yl]-5-ethylsulfonyl-3-pyridyl]cyclopropanecarbonitrile]
≥ 80%: effect (mortality or growth inhibition) at 200 ppm [8] | percent effect (mortality or growth inhibition) at 200 ppm [1] | percent control (mortality, anti-feedant effect or growth inhibition) at 200 ppm [2] | percent effect (mortality or growth inhibition) at 200 ppm [3] | percent control (mortality, anti-feeding effect or growth inhibition) at 200 ppm [5] | mortality at 200 ppm [6]
